ChEMBL document CHEMBL1201862, “PubChem BioAssay data set” (2004)
The source made the active and inactive calls.

How the values were obtained:
[1] = NIH-3T3 fibroblast cytotoxicity, dose response, cytotoxicity control, cell-based, fluorescence, Alamar Blue, secondary assay (AID 2327); assay type: functional;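 also: NIH-3T3 mouse fibroblasts cultured with fluconazole at 8 µg/mL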
[2] = fluconazole-exposed Candida albicans growth modulators – fluorescence, retest, confirmation (AID 2467); assay type: functional, cell-based
[3] = system: CHO-K1; experiment: (§1) Counterscreen for antagonists of the orexin 1 receptor (OX1R; HCRTR1): Homogeneous time resolved fluorescence (HTRF)-based cell-based dose response assay to identify antagonists of the parental CHO-K1 cell line. [Related pubchem assays (depositor defined):AID434989, AID435008, AID463079, AID485270, AID492963, AID492964, AID492965, AID493232, AID504699, AID504701]; assay type: functional; settings: Cricetulus griseus
[4] = as §1, with “Fluorescence-based” for “Homogeneous time resolved fluorescence (HTRF)-based”, “cell-based high throughput” for “cell-based”, “CHO” for “CHO-K1”; assay type: functional
[5] = biological target: T1, Orexin/Hypocretin receptor type 1 (Homo sapiens, UniProt O43613); experiment: Homogeneous Time Resolved Fluorescence (HTRF)-based cell-based high throughput dose response assay for antagonists of the orexin 1 receptor (OX1R; HCRTR1). [Related pubchem assays (depositor defined):AID434989, AID435008, AID463079, AID485270, AID492963, AID492964, AID492965, AID493232, AID504717, AID504718]; assay type: functional
T1 sequence (O43613 whole entry): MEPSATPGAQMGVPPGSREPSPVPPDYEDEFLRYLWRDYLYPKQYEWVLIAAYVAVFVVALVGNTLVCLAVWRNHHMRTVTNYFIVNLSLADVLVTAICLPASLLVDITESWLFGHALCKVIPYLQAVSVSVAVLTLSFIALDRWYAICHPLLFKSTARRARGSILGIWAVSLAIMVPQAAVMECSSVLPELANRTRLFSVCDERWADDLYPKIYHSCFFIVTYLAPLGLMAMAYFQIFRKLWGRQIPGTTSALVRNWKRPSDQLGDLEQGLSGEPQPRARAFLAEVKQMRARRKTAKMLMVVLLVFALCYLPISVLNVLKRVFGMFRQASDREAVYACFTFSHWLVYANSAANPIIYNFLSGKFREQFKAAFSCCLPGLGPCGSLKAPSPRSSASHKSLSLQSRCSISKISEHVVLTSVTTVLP

[6] = biological target: T1, Orexin/Hypocretin receptor type 1; experiment: Fluorescence-based cell-based high throughput dose response assay for antagonists of the orexin 1 receptor (OX1R; HCRTR1). [Related pubchem assays (depositor defined):AID434989, AID435008, AID463079, AID485270, AID492963, AID492964, AID492965, AID493232, AID504717, AID504718]; assay type: functional
[7] = biological target: T2, Orexin receptor type 2 (Homo sapiens, UniProt O43614); experiment: Counterscreen assay for antagonists of the orexin 1 receptor (OX1R; HCRTR1): Fluorescence-based cell-based dose response assay for antagonists of the orexin 2 receptor (OX2R; HCRTR2), run by assay provider.; assay type: functional
T2 sequence (O43614 whole entry): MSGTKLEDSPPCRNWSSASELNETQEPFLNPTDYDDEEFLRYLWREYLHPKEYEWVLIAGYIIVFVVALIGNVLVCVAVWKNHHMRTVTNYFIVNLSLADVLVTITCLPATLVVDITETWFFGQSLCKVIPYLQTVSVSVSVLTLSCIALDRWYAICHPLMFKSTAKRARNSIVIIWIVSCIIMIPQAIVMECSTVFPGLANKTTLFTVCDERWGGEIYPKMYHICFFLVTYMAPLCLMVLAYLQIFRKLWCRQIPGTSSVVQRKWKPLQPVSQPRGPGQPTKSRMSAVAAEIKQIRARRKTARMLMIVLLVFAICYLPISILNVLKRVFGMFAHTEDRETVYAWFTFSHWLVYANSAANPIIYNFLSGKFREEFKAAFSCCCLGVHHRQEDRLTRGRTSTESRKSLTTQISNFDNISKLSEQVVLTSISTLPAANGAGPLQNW

[8] = biological target: T2, Orexin receptor type 2; experiment: Counterscreen assay for antagonists of the orexin 1 receptor (OX1R; HCRTR1): Homogeneous Time Resolved Fluorescence (HTRF)-based cell-based dose response assay for antagonists of the orexin 2 receptor (OX2R; HCRTR2), run by assay provider.; assay type: functional
[9] = biological target: NAD-dependent protein deacylase sirtuin-5, mitochondrial (Homo sapiens, UniProt Q9NXA8); experiment: sirtuin-5 deacylation blockers, concentration series – biochemical, fluorescence imaging, cherry-pick, set 5, dose response (AID 720591);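 also: desuccinylation of succinyl peptide AMC substrate read as fluorescence after trypsin release; potency of inhibitors that lower fluorescence and may act on trypsin instead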
Chain of NAD-dependent protein deacylase sirtuin-5, mitochondrial (Q9NXA8 whole entry): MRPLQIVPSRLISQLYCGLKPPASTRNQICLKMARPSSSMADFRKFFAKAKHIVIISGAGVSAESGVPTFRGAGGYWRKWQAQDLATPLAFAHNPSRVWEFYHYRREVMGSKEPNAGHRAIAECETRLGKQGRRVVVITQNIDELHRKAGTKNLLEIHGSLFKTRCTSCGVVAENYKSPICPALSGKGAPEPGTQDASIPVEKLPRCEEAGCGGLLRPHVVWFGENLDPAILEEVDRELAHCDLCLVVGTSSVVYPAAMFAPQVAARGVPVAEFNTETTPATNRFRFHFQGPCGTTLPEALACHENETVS

[10] = biological target: T3, Caspase-3 (Homo sapiens, UniProt P42574); experiment: inhibition of recombinant caspase-3 activity – biochemical, luminescence, set 2, selectivity assay for SENP protease inhibitor project, SAR follow-up (AID 588599); assay type: functional
T3 sequence (P42574 whole entry): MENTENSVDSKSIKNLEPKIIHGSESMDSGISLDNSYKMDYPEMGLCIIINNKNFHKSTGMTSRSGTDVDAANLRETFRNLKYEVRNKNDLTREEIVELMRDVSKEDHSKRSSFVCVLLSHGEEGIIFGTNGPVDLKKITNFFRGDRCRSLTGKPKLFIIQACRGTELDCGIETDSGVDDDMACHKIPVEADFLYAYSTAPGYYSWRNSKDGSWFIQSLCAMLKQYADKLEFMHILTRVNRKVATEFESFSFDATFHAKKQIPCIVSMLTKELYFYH

[11] = biological target: T4, Sentrin-specific protease 8 (Homo sapiens, UniProt Q96LD8); experiment: inhibition of sentrin protease 8 – biochemical, luminescence, set 2, SAR follow-up (AID 588601); assay type: functional
T4 sequence (Q96LD8 whole entry): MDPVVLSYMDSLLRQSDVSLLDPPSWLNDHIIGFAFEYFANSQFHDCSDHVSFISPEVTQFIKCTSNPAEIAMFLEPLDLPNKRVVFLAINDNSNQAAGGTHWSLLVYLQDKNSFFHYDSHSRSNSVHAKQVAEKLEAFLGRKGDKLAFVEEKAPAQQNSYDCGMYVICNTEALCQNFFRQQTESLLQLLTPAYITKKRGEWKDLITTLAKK

[12] = biological target: T5, Sentrin-specific protease 7 (Homo sapiens, UniProt Q9BQF6); experiment: inhibition of human SENP7 cleavage activity – biochemical, luminescence, set 2, SAR follow-up (AID 588600); assay type: functional
T5 sequence (Q9BQF6 whole entry): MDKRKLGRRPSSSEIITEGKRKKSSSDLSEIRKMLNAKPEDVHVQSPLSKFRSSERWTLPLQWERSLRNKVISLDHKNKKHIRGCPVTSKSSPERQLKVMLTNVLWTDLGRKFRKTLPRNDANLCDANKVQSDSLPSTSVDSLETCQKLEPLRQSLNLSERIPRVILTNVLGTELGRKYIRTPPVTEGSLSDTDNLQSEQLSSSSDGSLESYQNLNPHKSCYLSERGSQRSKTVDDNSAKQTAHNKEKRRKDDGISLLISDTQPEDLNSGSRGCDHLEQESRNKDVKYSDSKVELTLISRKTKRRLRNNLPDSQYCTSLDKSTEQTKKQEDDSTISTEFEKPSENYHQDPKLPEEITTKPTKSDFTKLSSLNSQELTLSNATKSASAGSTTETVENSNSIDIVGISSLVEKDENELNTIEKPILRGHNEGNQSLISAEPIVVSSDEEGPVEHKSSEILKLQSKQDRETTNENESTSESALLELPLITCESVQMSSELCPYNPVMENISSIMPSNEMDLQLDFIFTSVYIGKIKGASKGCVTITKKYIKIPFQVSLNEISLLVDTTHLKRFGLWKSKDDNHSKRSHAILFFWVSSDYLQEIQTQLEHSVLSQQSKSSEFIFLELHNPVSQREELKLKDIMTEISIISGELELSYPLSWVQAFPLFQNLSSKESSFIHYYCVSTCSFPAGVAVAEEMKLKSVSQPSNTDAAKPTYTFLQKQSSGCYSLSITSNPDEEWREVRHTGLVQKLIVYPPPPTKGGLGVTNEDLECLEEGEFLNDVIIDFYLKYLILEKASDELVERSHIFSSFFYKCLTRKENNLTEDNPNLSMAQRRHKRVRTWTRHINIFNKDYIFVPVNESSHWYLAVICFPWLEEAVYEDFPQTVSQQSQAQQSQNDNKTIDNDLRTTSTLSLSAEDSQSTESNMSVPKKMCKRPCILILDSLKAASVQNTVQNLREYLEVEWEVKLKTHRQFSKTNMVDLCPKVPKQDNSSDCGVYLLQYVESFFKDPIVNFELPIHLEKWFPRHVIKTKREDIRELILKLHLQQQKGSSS

[13] = biological target: T6, Sentrin-specific protease 6 (Homo sapiens, UniProt Q9GZR1); experiment: inhibition of human SENP6 catalytic domain – biochemical, luminescence, set 2, SAR follow-up (AID 588598); assay type: functional
T6 sequence (Q9GZR1 whole entry): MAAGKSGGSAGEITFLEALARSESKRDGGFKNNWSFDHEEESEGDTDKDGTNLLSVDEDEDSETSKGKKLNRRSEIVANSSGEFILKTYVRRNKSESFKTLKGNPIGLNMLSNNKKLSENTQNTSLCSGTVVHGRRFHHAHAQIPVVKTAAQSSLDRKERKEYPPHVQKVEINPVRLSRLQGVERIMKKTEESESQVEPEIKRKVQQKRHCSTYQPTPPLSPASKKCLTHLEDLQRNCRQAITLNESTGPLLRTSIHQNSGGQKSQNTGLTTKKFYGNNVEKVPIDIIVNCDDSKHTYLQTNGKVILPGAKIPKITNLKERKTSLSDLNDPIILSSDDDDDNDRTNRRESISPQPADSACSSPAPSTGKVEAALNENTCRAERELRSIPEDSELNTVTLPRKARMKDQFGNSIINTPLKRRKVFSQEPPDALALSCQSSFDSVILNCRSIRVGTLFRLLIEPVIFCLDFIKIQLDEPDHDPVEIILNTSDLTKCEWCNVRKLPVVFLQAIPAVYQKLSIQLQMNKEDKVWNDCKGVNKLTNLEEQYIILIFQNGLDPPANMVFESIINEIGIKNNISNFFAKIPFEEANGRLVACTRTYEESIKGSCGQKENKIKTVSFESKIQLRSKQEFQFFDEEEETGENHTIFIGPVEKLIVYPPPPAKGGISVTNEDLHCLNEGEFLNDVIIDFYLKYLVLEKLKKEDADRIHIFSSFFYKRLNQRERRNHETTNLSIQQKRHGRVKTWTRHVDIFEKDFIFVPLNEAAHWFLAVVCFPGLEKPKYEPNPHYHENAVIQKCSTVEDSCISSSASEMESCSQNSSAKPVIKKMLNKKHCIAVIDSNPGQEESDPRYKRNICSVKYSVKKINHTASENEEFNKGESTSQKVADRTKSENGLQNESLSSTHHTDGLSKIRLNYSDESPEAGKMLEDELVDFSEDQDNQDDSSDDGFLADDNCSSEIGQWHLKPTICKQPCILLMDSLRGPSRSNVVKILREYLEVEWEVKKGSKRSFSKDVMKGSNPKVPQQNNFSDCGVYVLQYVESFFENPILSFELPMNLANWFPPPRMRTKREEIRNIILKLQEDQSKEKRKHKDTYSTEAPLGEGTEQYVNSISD

[14] = biological target: Protein disulfide-isomerase (Homo sapiens, UniProt P07237); experiment: inhibition of PDI-driven insulin aggregation – biochemical, turbidity, absorbance, cherry-picked samples, dose response (AID 602350); assay type: functional
Chain of Protein disulfide-isomerase (P07237 whole entry): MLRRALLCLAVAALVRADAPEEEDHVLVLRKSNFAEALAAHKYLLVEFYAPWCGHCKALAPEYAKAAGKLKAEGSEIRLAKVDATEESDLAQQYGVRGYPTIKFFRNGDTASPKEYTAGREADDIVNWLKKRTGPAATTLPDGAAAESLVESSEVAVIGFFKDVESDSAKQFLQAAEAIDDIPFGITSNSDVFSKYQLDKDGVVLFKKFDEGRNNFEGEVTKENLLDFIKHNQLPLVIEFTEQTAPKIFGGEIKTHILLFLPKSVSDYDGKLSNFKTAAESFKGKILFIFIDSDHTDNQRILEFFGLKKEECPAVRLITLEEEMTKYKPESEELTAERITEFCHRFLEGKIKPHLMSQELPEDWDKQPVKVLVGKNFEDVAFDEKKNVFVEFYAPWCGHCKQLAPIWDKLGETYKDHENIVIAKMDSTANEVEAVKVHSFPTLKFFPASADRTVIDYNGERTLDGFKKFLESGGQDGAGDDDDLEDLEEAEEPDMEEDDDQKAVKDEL

[15] = biological target: T4, Sentrin-specific protease 8; experiment: inhibition of human SENP8 cleavage activity – biochemical, luminescence, SAR follow-up (AID 504501); assay type: functional
[16] = biological target: T3, Caspase-3; experiment: SAR Analysis of small molecule inhibitors of Sentrin-specific proteases (SENPs) using a Caspase-3 Selectivity assay. [Related pubchem assays (depositor defined):AID2540, AID2599, AID434973, AID489001]; assay type: functional
[17] = biological target: T6, Sentrin-specific protease 6; experiment: SAR Analysis of small molecule inhibitors of Sentrin-specific protease 6 (SENP6) using a Luminescent assay. [Related pubchem assays (depositor defined):AID2582, AID2599]; assay type: functional
[18] = biological target: T5, Sentrin-specific protease 7; experiment: inhibition of human SENP7 cleavage activity – biochemical, luminescence, SAR follow-up (AID 504497); assay type: functional

With `CCOc1ccccc1C(=O)Nc1ccc2nc3n(c(=O)c2c1)CCCCC3` the EC50 [1] was > 160 µM (inactive), the EC50 [2] was > 38 µM (not active) and the IC50 [3] was > 66.3 µM (inactive). The IC50 [4] was > 49.8 µM (inactive), the IC50 [5] was 0.417 µM (active) and the IC50 [6] was 2.58 µM (active). The IC50 [7] was > 88.8 µM (inactive), the IC50 [8] was > 50 µM (inactive) and the AC50 [9] was > 30 µM (inactive).

In the case of `O=C(NCc1ccccc1F)C(=O)c1c[nH]c2ccccc12`, the IC50 [10] is reported as > 99 µM (inactive), the IC50 [11] is reported as > 99 µM (inactive) and the IC50 [12] is reported as > 99 µM (inactive). The IC50 [13] was > 99 µM (inactive).

With `CC[C@]12c3[nH]c4cc(-c5ccco5)ccc4c3CCN1C(=O)[C@@H](CC(=O)NCCCOC)C[C@@H]2C(=O)N1CCN(C(=O)c2ccco2)CC1` the AC50 [14] was 16.7 µM (active).

With `Cn1c2ccc(Cl)cc2c2nc3ccccc3nc21` the IC50 [3] was > 66.2 µM (inactive), the IC50 [4] was > 49.8 µM (inactive) and the IC50 [5] was 1.13 µM (active). For the same molecule, the IC50 [6] was 4.25 µM (active), the IC50 [7] was > 88.8 µM (inactive) and the IC50 [8] was > 50 µM (inactive).

In the case of `O=C(COc1ccc(Cl)cc1Cl)NCC(=O)N/N=C/c1c[nH]c2ccccc12`, the IC50 [10] is reported as > 99 µM (inactive), the IC50 [11] is reported as > 99 µM (inactive) and the IC50 [12] is reported as > 99 µM (inactive). The IC50 [13] was > 99 µM (inactive).

In the case of `CCc1cccc2sc(NC(=O)c3cccc(F)c3)nc12`, the IC50 [15] is reported as > 99 µM (inactive), the IC50 [16] is reported as > 99 µM (inactive) and the IC50 [17] is reported as > 99 µM (inactive). The IC50 [18] was > 99 µM (inactive).

For `C[C@H]1CN([C@@H](C)CO)C(=O)c2cc(NC(=O)Cc3cn(C)c4ccccc34)ccc2O[C@H]1CN(C)S(=O)(=O)c1ccc(F)cc1`, the AC50 [14] was 19.5 µM (active).
